According to patent publication US20210393645A1, “TREATMENT FOR PROGRESSIVE MULTIPLE SCLEROSIS” (UTI LIMITED PARTNERSHIP, priority 2016, published 2021):
Entries after “also recorded” stand apart in the source; their conditions may differ. Counter-ions that a name gives are not always drawn. Like-named read-outs stand apart in the source and are kept apart here.

Key:
T-cells = assay: Proliferation of T-lymphocytes (3H-thymidine) in anti-CD3/anti-CD28 activated splenocytes; format: cell-based, mouse; details: for inhibition at 10 µM: Mus musculus, T-cell, 72 h, drug 10 μM, vs activated splenocytes, read-out: mean reduction of 3H-thymidine incorporation (T-cell proliferation)
Method: A previously published protocol was used for isolating and activating T-cells (Keough et al., Nature Comm 7:11312, 2016). Spleens from female C57B16 mice were harvested and after mechanical dissociation the cell suspension was passed through a 70 μm cell strainer and separated by Ficoll gradient (1800 RPM, 30 min). Splenocytes were plated (2.5×10^5 cells in 100 μl/well) in anti-CD3 antibody coated 96-well plates (1,000 ng m1^−1 plate-bound anti-CD3 and 1,000 ng m1^−1 anti-CD28 suspended in media) to activate T-cells. Directly before plating, wells were treated with respective drugs in a final concentration of 10 μM. Cells were cultured in RPMI 1640 medium, supplemented with 10% FBS, 1 μM sodium pyruvate, 2 mM L-alanyl-L-glutamine, 1% penicillin/streptomycin, 1% HEPES and 0.05 mM 2-mercaptoethanol (all supplements were from Invitrogen). After 48 h, ^3H-thymidine was added in a concentration of 1 μCi per well, and cells were harvested after 24 h on filter mats. Mats were then evaluated for radioactivity (counts per minute) using a liquid scintillation counter.

human neurons [1] = assay: Iron (FeSO4) mediated neurotoxicity screening, MAP-2 positive neurons counted; format: cell-based; details: for viability at 10 µM: Homo sapiens, Neuron, drug 10 μM 1 h before FeSO4 25 or 50 μM, MAP-2 neurons after 24 h, read-out: Drug % control (mean): number of neurons normalized to untreated control
Procedure, shortened: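 Fetal human neurons (15-20 wk), plated with cytosine arabinoside, were pre-incubated 1 h with compounds (10 mM DMSO stocks) before FeSO4 at 25-50 μM final. Cells fixed a day later; MAP-2 immunostaining plus Hoechst nuclei imaged automatically, sites per well averaged; quadruplicates.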

[2] = Hydroxyl radical antioxidant capacity (HORAC) assay; format: biochemical; details: vs 12.5 μM gallic acid (=1), 60 min
Method: In this assay, hydroxyl radicals generated by a Co(II)-mediated Fenton-like reaction oxidize fluorescein causing loss of fluorescence (Ou et al., J Argricultural Food Chemistry 50:2772-2777, 2002). The presence of an anti-oxidant reduces the loss of fluorescence and this can be monitored every 5 min over a period of 60 min with a Spectra Max Gemini XS plate reader (Molecular Devices, Sunnyvale, Calif., USA) and the software SoftMax Pro version 5. For monitoring fluorescence, we used an excitation wavelength of λ=485 nm and an emission wavelength of λ=520 nm.
The biochemical cell free hydroxyl radical antioxidant capacity (HORAC) assay investigates the prevention of hydroxyl radical mediated oxidation of to fluorescein in comparison to the strong anti-oxidant gallic acid. The generation of hydroxyl radicals by a cobalt-driven Fenton-like reaction oxidizes fluorescein with progressive loss of fluorescence. The presence of an anti-oxidant reduces the loss of fluorescence over time.
We compared the area under the curve of test compounds to that elicited by gallic acid to obtain the gallic acid equivalent (GAE).

human neurons [3] = assay: Live cell imaging of propidium iodide positive neurons challenged with FeSO4; format: cell-based; details: FeSO4 50 μM, pre-treatment 1 h
Method: Neurons were prepared as described above. Directly after the addition of FeSO4 to healthy neurons, the live cell-permeant Hoechst 33342 (1:2 diluted in AIM-V medium, nuclear blue; ThermoFisher Scientific, Grand Island, NY, USA) and the live cell-impermeable propinium iodide (PI, 1:20 diluted in AIM-V medium) were added in a volume of 20 μI (Sigma-Aldrich). In compromised cells, PI could now diffuse across the plasma membrane. Live cell imaging was performed using the automated ImageXpress® imaging system under controlled environmental conditions (37° C. and 5% CO2). Images were taken from 9 sites per well at baseline and then every 30 min for 12h. After export with MetaXpress®, videos were edited with ImageJ (NIH) in a uniform manner. Nuclei were pseudo colored in cyan, PI-positive cells in red.
Live cell imaging over 12 h supported the neuroprotective effects of drugs. We selected indapamide and desipramine for live imaging studies.

human neurons [4] = assay: Mitochondrial damage to neurons induced by rotenone; format: cell-based; details: rotenone 10 μM, drug 10 μM
Method: Human neurons were isolated from brain tissues of therapeutically aborted 15-20 week old fetuses, in accordance with ethics approval of the University of Calgary ethics committee, after written informed consent of the pregnant donors. Neurons were isolated as previously described (Vecil et al., 2000) brain specimens were washed in phosphate buffered saline (PBS) to remove blood, followed by removal of meninges. […] Thereafter, the digestion was stopped by addition of 4 ml fetal calf serum (FCS). The solution was filtered through a 132 μm filter and centrifuged (three times, 1,200 rpm, 10 min). Cells were cultured in feeding medium of minimal essential medium (MEM) supplemented with 10% fetal bovine serum (FBS), 1 μM sodium pyruvate, 10 μM glutamine, 1× non-essential amino acids, 0.1% dextrose and 1% penicillin/streptomycin (all culture supplements from Invitrogen, Burlington, Canada). […] For experiments, the neuron-enriched cultures were retrypsinized and cells were plated in poly-L-ornithine pre-coated 96-well plates at a density of 100,000 cells/well in 100 μl of the complete medium supplemented with cytosine arabinoside. […] All conditions were performed in quadruplicates. A day later cells were fixed using 4% paraformaldehyde (PFA) and stored in PBS in 4° C.
The iron stock solution was prepared using 27.8 mg iron(II) sulfate heptahydrate (FeSO4) (Sigma-Aldrich, Oakville, Canada), 10 μl of 17.8M sulfuric acid and 10 ml deionized distilled water. After filtering with a 0.2 μm filter, FeSO4 was added to cells in a final concentration of 25-50 μM in a volume of 50 μl medium to the cells. Rotenone was dissolved in dimethyl sulfoxide (DMSO) and used in a final concentration of 10 μM.

microglia = details: shown previously; cited from earlier work
mice = assay: Lysolecithin demyelination of the spinal cord in aging 8-10 months old mice; format: in vivo, mouse; details: 20 mg/kg IP immediately after lysolecithin and once per day for 2 days; day 3
Excerpt: Active demyelinating lesions can be found in MS specimens of all ages sampled, including late in life. Indeed, age has been identified to be a factor in the dreaded conversion from relapsing-remitting into secondary progressive MS. Contributing causes for aging-associated worsening in MS that drives progression include the steady loss of axons with longevity of disease, or the deficient repair of myelin in older compared to younger patients. We tested the hypothesis that the same demyelinating injury is more devastating to axons and myelin as the individual ages.
We thus treated aging 8-10 months old mice with intraperitoneal indapamide (20 mg/kg) immediately after lysolecithin demyelination, and once per day at 20 mg/kg for the next 2 days. Spinal cord tissues were taken for histology.

[5] = 1 h after the last of 16 daily clomipramine injections, 25 mg/kg IP
Method: One h after the last administration of clomipramine animals were anesthetized with ketamine/xylazine, blood was taken by an intracardiac puncture for serum, and animals were then subjected to PBS-perfusion. […] Cervical and lumbar cords were snap frozen.
For preparation of samples, 100 pl of ice cold methanol were added to 100 pl of serum in each sample after addition of the internal standard maprotiline. The tubes were vortexed and left on ice for 10 min followed by centrifugation at 10,000×g for 4 min. An equal amount of distilled water was added to each supernatant. Spinal cord samples were each homogenized in 10 volumes of ice-cold 80% methanol. Twenty pl of o-phosphoric acid were added to all samples after addition of internal standard (maprotiline). The tubes were vortexed and left on ice for 10 min, followed by centrifugation at 10,000×g for 4 min and an equal volume of distilled water was added to each supernatant. […]
Calibration curves consisting of varying amounts of authentic clomipramine and N-desmethylclomipramine and the same fixed amount of maprotiline as added to the samples being analyzed were run in parallel through the procedure described above and the ratios of clomipramine and N-desmethylclomipramine to maprotiline were used to determine the amount of drug and metabolite in the serum and spinal cord samples.

CNCCCN1c2ccccc2CCc2ccccc21 [DESIPRAMINE HYDROCHLORIDE]
inhibition at 10 µM (T-cells): 92.2%
protection from FeSO4-mediated neurotoxicity (in words) (human neurons [1]): strong protection
viability at 10 µM (human neurons [1]): 84.4%
mean HORAC-GAE (gallic acid equivalents) [2]: -5.00
number of PI-positive neurons in response to FeSO4 over 12 h (human neurons [3]): significantly attenuated
neurotoxicity by rotenone (mitochondrial damage) (human neurons [4]): active against damage to the mitochondrial respiratory chain

CN(C)CCC=C1c2ccccc2COc2ccccc21 [DOXEPIN HYDROCHLORIDE]
microglial activation reduced to (microglia): 46%
inhibition at 10 µM (T-cells): 85.3%
viability at 10 µM (human neurons [1]): 76.9%

CC1Cc2ccccc2N1NC(=O)c1ccc(Cl)c(S(N)(=O)=O)c1 (stereo not drawn) [INDAPAMIDE]
effect on T-lymphocyte proliferation (in words) (T-cells): no effect on T-lymphocyte proliferation
viability at 10 µM (human neurons [1]): 126%
protection from FeSO4-mediated neurotoxicity (in words) (human neurons [1]; drug 10 μM, human neurons): strong neuroprotective effects against iron toxicity
mean HORAC-GAE (gallic acid equivalents) [2]: 4.1
number of PI-positive neurons in response to FeSO4 over 12 h (human neurons [3]): significantly attenuated
neurotoxicity by rotenone (mitochondrial damage) (human neurons [4]): reduced neurotoxicity; also recorded: active against damage to the mitochondrial respiratory chain
axonal loss (mice): less axonal loss
lesional malondialdehyde level (mice): reduced lesional malondialdehyde
volume of demyelination (mice): smaller volume of demyelination

CC(CN(C)C)CN1c2ccccc2CCc2ccccc21 (stereo not drawn) [TRIMIPRAMINE MALEATE]
inhibition at 10 µM (T-cells): 54%
viability at 10 µM (human neurons [1]): 88.6%
mean HORAC-GAE (gallic acid equivalents) [2]: 4.2
neurotoxicity by rotenone (mitochondrial damage) (human neurons [4]): reduced neurotoxicity

CNCCCN1c2ccccc2CCc2ccc(Cl)cc21 [desmethylclomipramine]
mean serum concentration [5]: 101 nM
mean spinal cord level [5]: 1.5 µM
